Experimental data as given in patent US8507520B2, “Polysubstituted 2-aryl-6-phenylimidazo[1,2-A]pyridine derivatives, and preparation and therapeutic use thereof” (Sanofi, priority 2008, dated 2013).

Biological target: T1, mouse Nurr1 receptor (Mus musculus, UniProt Q06219)
T1 construct: a cell line (N2A) endogenously expressing the mouse Nurr1 receptor; host or cells: Neuro-2A (N2A) mouse neuroblastoma cells stably transfected with 8NBRE-luciferase
T1 sequence (Q06219 whole entry): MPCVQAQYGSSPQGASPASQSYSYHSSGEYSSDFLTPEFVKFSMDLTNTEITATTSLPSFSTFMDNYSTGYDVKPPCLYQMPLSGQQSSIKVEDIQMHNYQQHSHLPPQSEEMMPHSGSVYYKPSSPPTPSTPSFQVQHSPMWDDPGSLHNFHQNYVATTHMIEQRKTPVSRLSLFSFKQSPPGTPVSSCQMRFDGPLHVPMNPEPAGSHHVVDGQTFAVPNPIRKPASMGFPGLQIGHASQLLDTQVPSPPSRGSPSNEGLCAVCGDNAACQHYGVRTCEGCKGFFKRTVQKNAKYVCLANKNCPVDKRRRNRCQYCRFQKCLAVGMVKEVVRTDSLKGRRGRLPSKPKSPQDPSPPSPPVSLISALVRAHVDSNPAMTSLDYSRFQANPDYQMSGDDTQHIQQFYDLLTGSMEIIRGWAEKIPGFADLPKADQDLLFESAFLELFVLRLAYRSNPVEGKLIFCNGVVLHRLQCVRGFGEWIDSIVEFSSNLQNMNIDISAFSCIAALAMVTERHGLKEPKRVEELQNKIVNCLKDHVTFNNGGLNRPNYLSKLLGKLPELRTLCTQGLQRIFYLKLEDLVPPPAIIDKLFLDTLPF
Assay: In vitro activity on N2A cells (NBRE-luciferase reporter)
Type: cell-based
Conditions: N2A-8NBRE cells, products incubated 24 hours
Procedure: Evaluation of the In Vitro Activity on N2A Cells
• The activity of the compounds according to the invention was evaluated on a cell line (N2A) endogenously expressing the mouse Nurr1 receptor and stabily transfected with the NOT binding response element (NBRE) coupled to the luciferase reporter gene. The EC50 values are between 0.01 and 10 μM. The tests were carried out according to the procedure described below. • The Neuro-2A cell line comes from a standard commercial source (ATCC). The Neuro-2A clone was obtained from a spontaneous tumour originating from a mouse A albino strain by R. J. Klebe et al. This Neuro-2A line is subsequently stabily transfected with 8NBRE-luciferase. The N2A-8NBRE cells are cultured to confluence in 75 cm^2 culture flasks containing DMEM supplemented with 10% of foetal calf serum, 4.5 g/l of glucose and 0.4 mg/ml of geneticin. After one week of culture, the cells are recovered with 0.25% trypsin for 30 seconds and then resuspended in DMEM without phenol red, containing 4.5 g/l of glucose, 10% of Hyclone defatted serum, and deposited in white, transparent-bottom, 96-well plates. The cells are deposited at a rate of 60 000 per well in 75 μl for 24 hours before the addition of the products. The products were applied in 25 μl and incubated for a further 24 hours. On the day of measurement, an equivalent volume (100 μl) of Steadylite is added to each well, followed by a waiting period of 30 minutes in order to obtain complete lysis of the cells and maximum production of the signal. The plates are then measured in a microplate luminescence counter after having been sealed with an adhesive film. The products are prepared in the form of a stock solution at 10^−2 M, and then diluted in 100% of DMSO. Each product concentration is diluted beforehand in culture medium before incubation with the cells thus containing a final concentration of 0.625% of DMSO. […] It therefore appears that the compounds according to the invention have a NOT-modulating effect.
With `Cc1cc(-c2ccc(CO)cc2)cn2cc(-c3ccc4ccccc4c3)nc12` [Compound 10, [4-(8-methyl-2-naphthyl-2-ylimidazo[1,2-α]pyridin-6-yl)phenyl]methanol] the EC50 was 68 nM.
Molecule `Cc1c(-c2ccccc2)nc2ccc(-c3cccc(CO)c3)cn12` [Compound 3, [3-(3-Methyl-2-phenylimidazo[1,2-α]pyridin-6-yl)phenyl]methanol] has an EC50 of 0.5 nM.
`COc1ccc(-c2nc3ccc(-c4cccc(C(C)(C)O)c4)cn3c2C)cc1` [Compound 15, 2-{3-[2-(4-methoxyphenyl)-3-methylimidazo[1,2-α]pyridin-6-yl]phenyl}propan-2-ol] showed an EC50 of 161 nM.
With `Cc1c(-c2cccc(Cl)c2)nc2ccc(-c3ccc(F)c(CO)c3F)cn12` [Compound 19, {3-[2-(3-chlorophenyl)-3-methylimidazo[1,2-α]pyridin-6-yl]-2,6-difluorophenyl}methanol] the EC50 was 1.7 nM.
In the case of `Cc1cc(-c2cccc(CO)c2)cn2cc(-c3ccc(Cl)cc3)nc12` [Compound 1, {3-[2-(4-Chlorophenyl)-8-methylimidazo[1,2-α]pyridin-6-yl]phenyl}methanol], the EC50 is reported as 5 nM.

System: not given
Assay: not given
Conditions: not given
`Cc1cc(-c2cccc(CO)c2)cn2cc(-c3ccc(Cl)cc3)nc12` [Compound 1, {3-[2-(4-Chlorophenyl)-8-methylimidazo[1,2-α]pyridin-6-yl]phenyl}methanol] showed a melting point of 174 to 177 °C.
